The results in this text go back to ChEMBL document CHEMBL3991601, “The target landscape of clinical kinase drugs” (Science, 2017).

SMILES strings stand for the structures. pKd: −log10 of the molar value. Calls of active or inactive are those of the source.

Assay [1] deals with Myosin light chain kinase, smooth muscle (Homo sapiens, UniProt Q15746).
In assay [2] the target is Atypical kinase COQ8A, mitochondrial (Homo sapiens, UniProt Q8NI60).
In assay [3] the target is T1, cGMP-dependent protein kinase 1 (Homo sapiens, UniProt Q13976).
T1 sequence (Q13976 whole entry): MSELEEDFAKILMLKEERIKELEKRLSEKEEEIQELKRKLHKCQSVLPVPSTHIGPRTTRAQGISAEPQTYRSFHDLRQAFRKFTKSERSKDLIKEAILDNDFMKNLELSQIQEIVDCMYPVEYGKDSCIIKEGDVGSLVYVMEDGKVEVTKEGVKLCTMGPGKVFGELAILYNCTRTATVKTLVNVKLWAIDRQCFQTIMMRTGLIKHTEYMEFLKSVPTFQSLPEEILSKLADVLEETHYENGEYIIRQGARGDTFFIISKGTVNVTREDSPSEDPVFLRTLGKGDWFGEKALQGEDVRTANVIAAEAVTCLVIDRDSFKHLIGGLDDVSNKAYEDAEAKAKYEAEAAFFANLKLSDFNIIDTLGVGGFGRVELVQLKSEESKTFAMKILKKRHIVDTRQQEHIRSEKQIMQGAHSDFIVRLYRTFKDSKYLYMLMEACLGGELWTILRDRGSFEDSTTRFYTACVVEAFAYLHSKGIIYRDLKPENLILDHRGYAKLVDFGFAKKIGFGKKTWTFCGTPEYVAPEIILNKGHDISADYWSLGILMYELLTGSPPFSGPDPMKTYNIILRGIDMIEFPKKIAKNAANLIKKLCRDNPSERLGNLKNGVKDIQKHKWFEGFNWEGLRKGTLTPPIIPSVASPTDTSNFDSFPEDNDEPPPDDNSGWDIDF

Assay [4] addresses T2, Long-chain-fatty-acid--CoA ligase 5 (Homo sapiens, UniProt Q9ULC5).
T2 sequence (Q9ULC5 whole entry): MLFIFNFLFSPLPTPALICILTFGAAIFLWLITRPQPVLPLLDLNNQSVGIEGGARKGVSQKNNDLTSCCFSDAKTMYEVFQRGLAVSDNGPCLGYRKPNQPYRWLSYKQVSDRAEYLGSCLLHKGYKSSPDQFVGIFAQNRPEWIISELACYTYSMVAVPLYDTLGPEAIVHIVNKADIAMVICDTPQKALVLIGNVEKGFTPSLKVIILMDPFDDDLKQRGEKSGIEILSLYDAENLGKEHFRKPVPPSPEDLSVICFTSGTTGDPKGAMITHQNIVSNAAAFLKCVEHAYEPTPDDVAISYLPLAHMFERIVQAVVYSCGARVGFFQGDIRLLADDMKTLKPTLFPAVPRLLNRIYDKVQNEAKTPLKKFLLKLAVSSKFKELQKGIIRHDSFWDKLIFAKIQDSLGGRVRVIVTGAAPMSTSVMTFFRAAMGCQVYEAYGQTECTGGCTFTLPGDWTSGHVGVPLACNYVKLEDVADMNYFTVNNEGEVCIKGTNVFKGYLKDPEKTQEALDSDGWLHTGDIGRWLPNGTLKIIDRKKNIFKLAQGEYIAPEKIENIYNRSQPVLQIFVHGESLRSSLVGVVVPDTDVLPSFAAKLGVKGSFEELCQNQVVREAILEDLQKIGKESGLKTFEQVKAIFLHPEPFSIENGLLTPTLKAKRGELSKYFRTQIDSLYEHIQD

In assay [5] the target is Serine/threonine-protein kinase MRCK gamma (Homo sapiens, UniProt Q6DT37).
Sequence of Serine/threonine-protein kinase MRCK gamma (Q6DT37 whole entry): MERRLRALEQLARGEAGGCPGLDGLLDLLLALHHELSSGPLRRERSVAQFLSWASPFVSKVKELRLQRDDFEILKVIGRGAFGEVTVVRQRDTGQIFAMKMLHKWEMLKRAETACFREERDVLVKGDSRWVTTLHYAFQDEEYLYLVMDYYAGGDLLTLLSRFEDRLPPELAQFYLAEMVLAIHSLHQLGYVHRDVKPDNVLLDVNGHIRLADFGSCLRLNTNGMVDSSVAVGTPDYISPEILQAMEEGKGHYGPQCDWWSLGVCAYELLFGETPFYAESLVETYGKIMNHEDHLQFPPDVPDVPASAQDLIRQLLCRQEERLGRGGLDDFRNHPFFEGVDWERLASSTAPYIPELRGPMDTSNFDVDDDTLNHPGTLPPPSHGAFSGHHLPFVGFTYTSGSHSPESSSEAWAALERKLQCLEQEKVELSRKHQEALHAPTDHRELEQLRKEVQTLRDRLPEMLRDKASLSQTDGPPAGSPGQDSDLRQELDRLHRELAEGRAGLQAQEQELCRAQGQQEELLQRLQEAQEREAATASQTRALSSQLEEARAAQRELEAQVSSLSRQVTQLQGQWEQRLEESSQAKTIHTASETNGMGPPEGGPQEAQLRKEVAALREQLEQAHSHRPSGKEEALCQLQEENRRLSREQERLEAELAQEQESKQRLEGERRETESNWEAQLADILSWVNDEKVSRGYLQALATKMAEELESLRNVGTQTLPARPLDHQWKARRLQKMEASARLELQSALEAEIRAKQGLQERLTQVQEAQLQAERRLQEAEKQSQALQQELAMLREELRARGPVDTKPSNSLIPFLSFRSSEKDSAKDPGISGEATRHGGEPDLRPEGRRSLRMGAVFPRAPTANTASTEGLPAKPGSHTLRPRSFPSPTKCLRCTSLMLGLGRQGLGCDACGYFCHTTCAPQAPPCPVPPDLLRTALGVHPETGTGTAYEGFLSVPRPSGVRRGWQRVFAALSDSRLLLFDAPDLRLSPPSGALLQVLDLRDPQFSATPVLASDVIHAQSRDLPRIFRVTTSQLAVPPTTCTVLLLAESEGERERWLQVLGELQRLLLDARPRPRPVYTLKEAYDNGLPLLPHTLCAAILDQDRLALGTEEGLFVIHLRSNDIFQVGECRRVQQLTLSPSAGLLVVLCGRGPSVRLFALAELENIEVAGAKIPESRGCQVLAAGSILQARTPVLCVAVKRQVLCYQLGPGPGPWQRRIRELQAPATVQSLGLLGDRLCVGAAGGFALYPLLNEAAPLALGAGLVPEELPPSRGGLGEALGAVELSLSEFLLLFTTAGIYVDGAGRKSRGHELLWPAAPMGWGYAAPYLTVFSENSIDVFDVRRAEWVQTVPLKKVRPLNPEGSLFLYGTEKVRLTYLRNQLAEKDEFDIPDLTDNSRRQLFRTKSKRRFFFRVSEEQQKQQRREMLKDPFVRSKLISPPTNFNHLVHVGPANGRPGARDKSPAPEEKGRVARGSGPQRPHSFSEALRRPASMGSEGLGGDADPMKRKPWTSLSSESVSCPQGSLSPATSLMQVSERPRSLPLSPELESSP
Assay [6] addresses T3, Tyrosine--tRNA ligase, cytoplasmic (Homo sapiens, UniProt P54577).
T3 sequence (P54577 whole entry): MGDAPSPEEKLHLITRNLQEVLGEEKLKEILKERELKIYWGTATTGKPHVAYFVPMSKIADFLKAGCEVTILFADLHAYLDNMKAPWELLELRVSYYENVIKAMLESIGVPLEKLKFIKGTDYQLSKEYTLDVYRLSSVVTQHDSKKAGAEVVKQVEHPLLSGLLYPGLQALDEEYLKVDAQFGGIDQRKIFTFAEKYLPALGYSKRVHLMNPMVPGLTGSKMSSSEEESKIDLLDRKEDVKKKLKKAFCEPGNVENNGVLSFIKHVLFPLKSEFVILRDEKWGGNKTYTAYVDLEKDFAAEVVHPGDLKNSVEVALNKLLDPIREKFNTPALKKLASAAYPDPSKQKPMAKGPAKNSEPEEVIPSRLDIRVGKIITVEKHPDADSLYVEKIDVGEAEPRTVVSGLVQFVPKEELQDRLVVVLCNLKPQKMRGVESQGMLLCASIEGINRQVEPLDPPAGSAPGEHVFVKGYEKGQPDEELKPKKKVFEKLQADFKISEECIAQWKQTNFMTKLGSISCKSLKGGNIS

Assay [7] has as its target Cyclin-dependent kinase 3 (Homo sapiens, UniProt Q00526).
Assay [8] has as its target Fibroblast growth factor receptor 1 (Homo sapiens, UniProt P11362).
The target of assay [9] is T4, Beta-adrenergic receptor kinase 1 (Homo sapiens, UniProt P25098).
T4 sequence (P25098 whole entry): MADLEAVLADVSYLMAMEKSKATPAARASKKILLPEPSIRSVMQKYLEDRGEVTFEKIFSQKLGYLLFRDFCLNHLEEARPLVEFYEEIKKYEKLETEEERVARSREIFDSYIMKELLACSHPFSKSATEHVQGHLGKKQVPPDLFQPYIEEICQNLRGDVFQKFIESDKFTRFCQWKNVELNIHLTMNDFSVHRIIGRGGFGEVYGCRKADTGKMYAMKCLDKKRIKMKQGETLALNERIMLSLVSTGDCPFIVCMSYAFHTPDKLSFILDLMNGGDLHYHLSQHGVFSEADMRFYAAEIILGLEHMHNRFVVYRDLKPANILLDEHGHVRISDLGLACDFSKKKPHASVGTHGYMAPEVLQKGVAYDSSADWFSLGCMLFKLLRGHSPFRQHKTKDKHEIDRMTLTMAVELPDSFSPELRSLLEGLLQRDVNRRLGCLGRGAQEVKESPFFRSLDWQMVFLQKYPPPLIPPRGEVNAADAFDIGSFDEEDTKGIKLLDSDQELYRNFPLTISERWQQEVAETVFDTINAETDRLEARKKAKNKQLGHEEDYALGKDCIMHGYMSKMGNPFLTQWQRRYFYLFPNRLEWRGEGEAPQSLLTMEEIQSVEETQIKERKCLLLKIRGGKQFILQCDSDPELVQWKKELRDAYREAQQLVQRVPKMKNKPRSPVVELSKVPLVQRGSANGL

The target in another assay is Aurora kinase B (Homo sapiens, UniProt Q96GD4).
Assay [10] concerns the target Ras-related protein Rab-6A (Homo sapiens, UniProt P20340).
Also: in the data inactive means no Kd found up to 30 µM.

Sequence of Fibroblast growth factor receptor 1 (P11362 whole entry): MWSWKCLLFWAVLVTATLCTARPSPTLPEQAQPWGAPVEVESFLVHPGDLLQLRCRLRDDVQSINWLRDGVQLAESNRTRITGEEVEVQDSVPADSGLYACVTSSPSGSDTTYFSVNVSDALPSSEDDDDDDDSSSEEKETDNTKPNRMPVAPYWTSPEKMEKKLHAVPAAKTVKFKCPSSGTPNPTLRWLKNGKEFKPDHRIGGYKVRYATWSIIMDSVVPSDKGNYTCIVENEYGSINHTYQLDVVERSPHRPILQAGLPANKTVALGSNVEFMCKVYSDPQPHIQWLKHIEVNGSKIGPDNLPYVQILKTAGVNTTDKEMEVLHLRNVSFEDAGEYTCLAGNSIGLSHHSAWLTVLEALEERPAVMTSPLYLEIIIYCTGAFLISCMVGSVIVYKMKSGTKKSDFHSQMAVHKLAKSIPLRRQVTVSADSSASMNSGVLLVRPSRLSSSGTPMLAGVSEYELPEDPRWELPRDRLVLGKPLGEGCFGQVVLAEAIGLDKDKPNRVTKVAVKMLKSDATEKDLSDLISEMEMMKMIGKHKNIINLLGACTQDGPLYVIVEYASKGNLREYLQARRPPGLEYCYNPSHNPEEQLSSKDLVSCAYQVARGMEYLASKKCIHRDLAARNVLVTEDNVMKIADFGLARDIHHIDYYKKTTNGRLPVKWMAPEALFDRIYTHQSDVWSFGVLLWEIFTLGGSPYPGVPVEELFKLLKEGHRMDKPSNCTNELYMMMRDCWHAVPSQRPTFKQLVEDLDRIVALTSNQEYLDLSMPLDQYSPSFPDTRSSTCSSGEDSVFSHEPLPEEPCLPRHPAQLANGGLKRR
Sequence of Atypical kinase COQ8A, mitochondrial (Q8NI60 whole entry): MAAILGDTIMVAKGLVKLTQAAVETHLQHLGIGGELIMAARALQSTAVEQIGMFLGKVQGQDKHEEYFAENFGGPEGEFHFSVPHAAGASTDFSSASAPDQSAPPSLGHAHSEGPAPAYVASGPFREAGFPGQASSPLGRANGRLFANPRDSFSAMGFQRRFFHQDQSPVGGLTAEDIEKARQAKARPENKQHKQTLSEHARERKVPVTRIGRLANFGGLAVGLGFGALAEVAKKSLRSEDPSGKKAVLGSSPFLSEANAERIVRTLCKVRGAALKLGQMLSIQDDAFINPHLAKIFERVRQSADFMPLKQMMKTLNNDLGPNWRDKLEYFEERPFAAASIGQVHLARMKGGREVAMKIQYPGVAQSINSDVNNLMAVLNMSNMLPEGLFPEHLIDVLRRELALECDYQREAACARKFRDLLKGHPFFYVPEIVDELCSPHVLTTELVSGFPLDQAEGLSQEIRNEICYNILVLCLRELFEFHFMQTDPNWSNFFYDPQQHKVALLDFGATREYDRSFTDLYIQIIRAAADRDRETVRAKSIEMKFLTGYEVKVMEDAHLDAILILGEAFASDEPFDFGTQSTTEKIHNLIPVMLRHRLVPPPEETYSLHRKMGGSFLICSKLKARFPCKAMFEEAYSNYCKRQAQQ
Sequence of Myosin light chain kinase, smooth muscle (Q15746 whole entry): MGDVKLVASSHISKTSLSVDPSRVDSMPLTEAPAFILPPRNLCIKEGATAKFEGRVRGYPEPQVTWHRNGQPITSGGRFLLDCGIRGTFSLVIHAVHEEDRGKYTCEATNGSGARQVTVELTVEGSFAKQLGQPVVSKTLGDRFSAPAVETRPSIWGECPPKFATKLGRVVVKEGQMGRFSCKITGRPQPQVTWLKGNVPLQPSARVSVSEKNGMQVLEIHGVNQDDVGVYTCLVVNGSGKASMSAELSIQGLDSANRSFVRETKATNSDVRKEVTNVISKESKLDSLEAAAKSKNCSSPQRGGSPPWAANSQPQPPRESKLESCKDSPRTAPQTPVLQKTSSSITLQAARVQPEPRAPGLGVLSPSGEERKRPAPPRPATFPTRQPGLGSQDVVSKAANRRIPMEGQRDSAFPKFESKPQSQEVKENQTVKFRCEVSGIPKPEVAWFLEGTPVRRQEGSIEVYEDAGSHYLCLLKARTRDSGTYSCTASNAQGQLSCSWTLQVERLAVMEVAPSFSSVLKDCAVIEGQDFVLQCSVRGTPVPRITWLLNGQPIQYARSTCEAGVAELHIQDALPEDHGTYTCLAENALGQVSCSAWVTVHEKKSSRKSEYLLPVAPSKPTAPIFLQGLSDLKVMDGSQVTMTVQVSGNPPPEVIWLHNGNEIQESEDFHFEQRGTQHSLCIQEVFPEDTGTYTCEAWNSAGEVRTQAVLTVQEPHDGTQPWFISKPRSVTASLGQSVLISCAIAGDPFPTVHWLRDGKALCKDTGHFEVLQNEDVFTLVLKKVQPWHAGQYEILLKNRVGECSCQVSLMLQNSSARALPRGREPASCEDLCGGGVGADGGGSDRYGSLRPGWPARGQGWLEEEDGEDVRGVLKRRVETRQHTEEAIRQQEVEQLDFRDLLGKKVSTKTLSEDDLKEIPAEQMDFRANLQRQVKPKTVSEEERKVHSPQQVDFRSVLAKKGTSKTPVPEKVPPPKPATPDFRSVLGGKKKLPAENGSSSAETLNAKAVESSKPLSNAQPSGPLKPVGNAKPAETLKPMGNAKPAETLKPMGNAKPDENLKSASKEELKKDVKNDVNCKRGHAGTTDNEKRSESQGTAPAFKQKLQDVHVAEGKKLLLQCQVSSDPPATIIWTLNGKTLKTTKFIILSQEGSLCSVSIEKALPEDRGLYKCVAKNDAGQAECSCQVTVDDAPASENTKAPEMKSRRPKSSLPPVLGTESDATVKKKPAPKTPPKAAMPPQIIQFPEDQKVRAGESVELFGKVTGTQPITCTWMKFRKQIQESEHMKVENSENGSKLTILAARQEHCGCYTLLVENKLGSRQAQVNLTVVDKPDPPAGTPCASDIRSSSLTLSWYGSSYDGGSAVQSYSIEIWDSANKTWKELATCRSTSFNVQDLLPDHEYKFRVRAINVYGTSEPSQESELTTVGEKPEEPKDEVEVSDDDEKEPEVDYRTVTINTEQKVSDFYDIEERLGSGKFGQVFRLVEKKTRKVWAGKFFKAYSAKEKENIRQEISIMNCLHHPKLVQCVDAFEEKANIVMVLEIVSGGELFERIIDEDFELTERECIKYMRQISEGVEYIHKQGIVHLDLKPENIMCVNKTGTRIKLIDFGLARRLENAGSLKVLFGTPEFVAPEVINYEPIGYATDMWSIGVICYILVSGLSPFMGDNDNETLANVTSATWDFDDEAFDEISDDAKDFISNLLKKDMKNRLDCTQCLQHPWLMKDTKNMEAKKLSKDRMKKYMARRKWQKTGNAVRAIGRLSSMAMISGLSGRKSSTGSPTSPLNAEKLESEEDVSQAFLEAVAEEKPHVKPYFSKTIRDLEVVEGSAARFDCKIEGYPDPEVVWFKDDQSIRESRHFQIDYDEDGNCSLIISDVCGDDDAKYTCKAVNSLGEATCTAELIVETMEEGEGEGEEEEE

In general, Kd refers to the constant that tells how readily two partners part at equilibrium. For the compound `COc1cc2ncnc(Nc3ccc(F)c(Cl)c3)c2cc1NC(=O)/C=C/CN1CCCCC1` [DACOMITINIB ANHYDROUS], the Kd in assay [1], in assay [2], in assay [3], in assay [4], in assay [5] and in [6] was > 30 µM (inactive) throughout. Besides, the Kd (in [7]; in assay [8]; in [9]; at Aurora kinase B; in assay [10]) was > 30 µM (inactive) throughout.
Consider `CCOc1ccn(-c2ccc(F)cc2)c(=O)c1C(=O)Nc1ccc(Oc2ccnc(N)c2Cl)c(F)c1` [BMS-777607], for which the Kd in assay [1], in assay [2], in assay [3], in assay [4], in [6] and in assay [7] was > 30 µM (inactive) each time. Moreover, the Kd in assay [8] was > 30 µM (inactive); in [9] it was > 30 µM (inactive); at Aurora kinase B it was 1.07 µM (active); in [10], > 30 µM (inactive).
On to `CN(c1ncccc1CNc1nc(Nc2ccc3c(c2)CC(=O)N3)ncc1C(F)(F)F)S(C)(=O)=O` [PF-00562271], for which the Kd in assay [1] is > 30 µM (inactive); in assay [2] it was > 30 µM (inactive); in assay [4] it was > 30 µM (inactive); in assay [5], > 30 µM (inactive); in assay [6] it was > 30 µM (inactive); in assay [7], 3.43 µM (active). Besides, the Kd was > 30 µM (inactive) in assay [9], 1.04 µM (active) at Aurora kinase B and > 30 µM (inactive) in [10].
As usually defined, the pKd is −log10 of the Kd, conventionally taken in molar units. The compound `NC(=O)c1ccc(N(C(N)=O)c2c(F)cccc2F)nc1-c1ccc(F)cc1F` [VX-702] had a pKd in assay [1] of 8.52. Also, the Kd in assay [2], in assay [3], in [4], in [6], in [7] and in assay [8] was > 30 µM (inactive) each time. Also, the Kd (in assay [9]; on Aurora kinase B; in assay [10]) was > 30 µM (inactive) throughout.
In the case of `CC[C@@](C)(Nc1ccnc(-c2c[nH]c3ncccc23)n1)C(=O)NCC(F)(F)F` [DECERNOTINIB], the Kd in [1], in [2], in [3], in assay [4], in assay [6] and in assay [7] was > 30 µM (inactive) in each case. In addition, the Kd (in assay [8]; in [9]; on Aurora kinase B; in assay [10]) was > 30 µM (inactive) throughout.
As to `COc1cccc(Nc2ncnn3ccc(CN4CC[C@@H](N)[C@H](O)C4)c23)c1` [BMS-690514], the Kd in assay [1], in [2], in assay [3], in [4], in [6] and in assay [7] was > 30 µM (inactive) in each case. The Kd (in [8]; in [9]; at Aurora kinase B) was > 30 µM (inactive) in each case.
Turning to `N#CCNC(=O)c1ccc(-c2ccnc(Nc3ccc(N4CCOCC4)cc3)n2)cc1` [MOMELOTINIB], the Kd in [1], in [2], in assay [3], in assay [4], in assay [5] and in assay [6] was > 30 µM (inactive) in each case. Moreover, the Kd (in [8]; in assay [9]; on Aurora kinase B; in assay [10]) was > 30 µM (inactive) each time.
With `NC[C@@](O)(c1ccc(Cl)cc1)c1ccc(-c2cn[nH]c2)cc1` [AT-13148], the Kd in assay [1], in [2], in assay [3], in assay [4], in assay [5] and in assay [6] was > 30 µM (inactive) each time. The Kd was > 30 µM (inactive) in assay [7], > 30 µM (inactive) in assay [8], 0.17 µM (active) in [9] and > 30 µM (inactive) on Aurora kinase B.
Consider `O=S(=O)(c1cccc2c(O)nccc12)N1CCCNCC1` [HYDROXYFASUDIL], for which the Kd in assay [1], in assay [2], in assay [3], in [4], in assay [5] and in [6] was > 30 µM (inactive) in each case. The Kd (in assay [7]; in assay [9]; on Aurora kinase B; in assay [10]) was > 30 µM (inactive) in each case.
For `CCc1nc(C(N)=O)c(Nc2ccc(N3CCC(N4CCN(C)CC4)CC3)c(OC)c2)nc1NC1CCOCC1` [GILTERITINIB], the Kd in assay [1] is 0.188 µM (active); in assay [2], > 30 µM (inactive); in assay [3], > 30 µM (inactive); in [6], > 30 µM (inactive); in assay [7] it was > 30 µM (inactive); in [8] it was > 30 µM (inactive). For the same compound, the Kd (in [9]; on Aurora kinase B; in assay [10]) was > 30 µM (inactive) throughout. In [4], this compound gave a pKd of 6.68.
